Results published in ChEMBL document CHEMBL1201862, “PubChem BioAssay data set” (2004).
Activity calls are given as the source filed them.

Experiments:
Phospholipase A2 = Phospholipase A2 (Homo sapiens, UniProt P04054); type: functional;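 also: confirmatory dose-response counterscreen on phospholipase A2, testing hits that came from an ultra-high-throughput screen for ATG4B inhibitors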
[1] = viability of PTEN-deleted HCT116 cells – cell-based, HCT116 PTEN knockout, dose response (AID 1047); type: functional;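 also: HCT116 colon tumor cells with PTEN knocked out; cells exposed to compound for 60 hours before readout; potency for loss of cell viability measured by luminescence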
[2] = viability of HCT116 lacking mutant beta-catenin – cell-based, human colon tumor, dose response (AID 1045); type: functional;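 also: HCT116 colon tumor cells with beta catenin knocked out; cells exposed to compound for 60 hours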
[3] = tested on: Streptococcus sp. 'group A'; experiment: Streptococcus pyogenes SK(-)GAS viability under kanamycin – luminescence, BacTiterGlo, confirmation, counter-screen for streptokinase expression inhibitor project, dose response (AID 1900); type: functional, organism-based
Cysteine protease ATG4B = biological target: T1, Cysteine protease ATG4B (Homo sapiens, UniProt Q9Y4P1); type: functional;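 also: Fluorescence-based dose-response confirmation assay measuring inhibition of ATG4B activity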
T1 sequence (Q9Y4P1 whole entry): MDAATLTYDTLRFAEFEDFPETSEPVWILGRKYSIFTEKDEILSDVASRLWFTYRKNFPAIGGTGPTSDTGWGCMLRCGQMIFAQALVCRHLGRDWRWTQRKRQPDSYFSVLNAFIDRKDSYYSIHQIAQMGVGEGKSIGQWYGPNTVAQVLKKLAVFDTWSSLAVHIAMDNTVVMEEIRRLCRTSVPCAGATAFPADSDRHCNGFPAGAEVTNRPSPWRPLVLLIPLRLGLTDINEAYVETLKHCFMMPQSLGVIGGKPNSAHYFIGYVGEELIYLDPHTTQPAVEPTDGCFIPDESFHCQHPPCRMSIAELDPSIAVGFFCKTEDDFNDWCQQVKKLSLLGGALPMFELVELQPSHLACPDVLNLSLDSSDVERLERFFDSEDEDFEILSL

Streptococcus = experiment: GAS UMAA2166 growth inhibition – luminescence, BacTiterGlo, counter-screen for streptokinase expression inhibitor project, dose response (AID 1915); type: functional, organism-based;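 also: potency for reduction of bacterial viability or growth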
[4] = biological target: T2, DNA repair protein RAD52 homolog (Homo sapiens, UniProt P43351); type: functional, biochemical
T2 sequence (P43351 whole entry): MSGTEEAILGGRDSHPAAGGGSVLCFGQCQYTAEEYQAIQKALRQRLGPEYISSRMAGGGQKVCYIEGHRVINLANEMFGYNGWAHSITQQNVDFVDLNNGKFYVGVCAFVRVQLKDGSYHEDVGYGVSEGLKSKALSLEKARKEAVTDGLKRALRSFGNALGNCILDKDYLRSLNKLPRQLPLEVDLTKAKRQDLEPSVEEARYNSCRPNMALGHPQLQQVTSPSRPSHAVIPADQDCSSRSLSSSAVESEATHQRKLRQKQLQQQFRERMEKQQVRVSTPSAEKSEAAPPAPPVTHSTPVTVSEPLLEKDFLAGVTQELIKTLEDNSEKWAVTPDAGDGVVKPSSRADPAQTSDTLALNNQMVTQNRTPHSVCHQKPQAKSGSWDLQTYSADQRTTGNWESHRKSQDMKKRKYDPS

Vero = experiment: cells; type: functional; conditions: Chlorocebus sabaeus
Streptokinase A = biological target: T3, Streptokinase A (Streptococcus pyogenes serotype M1, UniProt P10520); experiment: viability-normalized secreted streptokinase activity reduction – plasminogen activation absorbance, OD405, dose response (AID 1914); type: functional, Streptococcus pyogenes M1 GAS;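 also: secreted streptokinase activity via plasminogen activation per viability signal from cell pellet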
T3 sequence (P10520 whole entry): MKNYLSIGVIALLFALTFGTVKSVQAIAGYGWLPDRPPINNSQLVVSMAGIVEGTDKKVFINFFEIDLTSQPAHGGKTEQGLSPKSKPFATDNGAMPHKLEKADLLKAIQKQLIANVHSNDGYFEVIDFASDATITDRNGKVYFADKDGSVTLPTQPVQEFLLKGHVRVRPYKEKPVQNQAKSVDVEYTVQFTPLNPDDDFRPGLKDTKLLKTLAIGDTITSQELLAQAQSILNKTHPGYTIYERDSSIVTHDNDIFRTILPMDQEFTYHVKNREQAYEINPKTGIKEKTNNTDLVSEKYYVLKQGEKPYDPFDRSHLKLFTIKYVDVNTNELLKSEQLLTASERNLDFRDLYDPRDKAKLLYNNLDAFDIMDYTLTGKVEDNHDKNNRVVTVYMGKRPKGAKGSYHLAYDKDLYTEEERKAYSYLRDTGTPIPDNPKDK

[5] = fluconazole-exposed Candida albicans growth modulators – fluorescence, retest, confirmation (AID 2467); type: functional, cell-based
[6] = NIH-3T3 fibroblast cytotoxicity, dose response, cytotoxicity control, cell-based, fluorescence, Alamar Blue, secondary assay (AID 2327); type: functional;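 also: NIH-3T3 mouse fibroblasts cultured with fluconazole at 8 µg/mL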
[7] = Trypanosoma cruzi growth suppression in host cells – NIH3T3 host cells, beta-gal luminescence, confirmation (AID 2044); type: functional, cell-based;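 also: intracellular parasites grown in NIH/3T3 mouse fibroblasts as host cells; luminescent beta-galactosidase reporter signal from transgenic T. cruzi replicating inside host cells; inhibitors lower the luminescence signal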
[8] = NIH3T3 cell viability loss – ATP luminescence, mouse fibroblasts, counter-screen, dose response (AID 2010); type: functional, cell-based;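 also: cells exposed to compound for about 90 hours before reading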
HEK293 [9] = experiment: inhibition of NOD1-driven NF-kB reporter – cell-based, luminescence, uHTS, primary screen (AID 1578); type: functional; conditions: Homo sapiens
HEK293 [10] = experiment: NOD2 signaling inhibitors in MDP-stimulated cells, cell-based, uHTS, luminescence (AID 2001); type: functional; conditions: Homo sapiens
HEK293 [11] = experiment: cells; type: functional, cell-based; conditions: Homo sapiens
HEK293 [12] = experiment: cells; type: functional, cell-based; conditions: Homo sapiens; remark: listed apart in the source
[13] = biological target: Nucleotide-binding oligomerization domain-containing protein 2 (Homo sapiens, UniProt Q9HC29); experiment: inhibition of NOD2-driven NF-kB reporter – cell-based, luminescence, uHTS, HEK293 (AID 1566); type: functional
HEK293 [14] = experiment: cells; type: functional, cell-based; conditions: Homo sapiens; remark: listed apart in the source
fMet-Leu-Phe receptor = biological target: T4, fMet-Leu-Phe receptor (Homo sapiens, UniProt P21462); experiment: formyl peptide receptor binders – dose response (AID 519); type: functional
T4 sequence (P21462 whole entry): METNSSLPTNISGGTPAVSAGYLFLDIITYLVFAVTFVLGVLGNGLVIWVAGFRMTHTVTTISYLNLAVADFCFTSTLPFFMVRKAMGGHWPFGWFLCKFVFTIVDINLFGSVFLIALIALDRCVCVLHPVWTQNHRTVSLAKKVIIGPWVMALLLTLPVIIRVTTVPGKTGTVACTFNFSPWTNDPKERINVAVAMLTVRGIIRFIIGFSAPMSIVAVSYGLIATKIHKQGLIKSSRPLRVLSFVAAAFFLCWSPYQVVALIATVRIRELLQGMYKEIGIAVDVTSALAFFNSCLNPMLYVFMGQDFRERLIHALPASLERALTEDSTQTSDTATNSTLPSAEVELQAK

Cytochrome P450 2D6 = Cytochrome P450 2D6 (Homo sapiens, UniProt P10635);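 also: CYP2D6 member of a cytochrome P450 panel assay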
Cytochrome P450 2C19 = Cytochrome P450 2C19 (Homo sapiens, UniProt P33261); experiment: Cytochrome panel assay with activity outcomes. Panel member name: p450-cyp2c19 Compounds with AC50 equal or less than 10 uM are considered active; type: functional; conditions: read-out: AC50
[15] = biological target: Beta-2 adrenergic receptor (Homo sapiens, UniProt P07550); experiment: ADRB2 activation measured by internalization – cell-based, FAP fluorogen, flow cytometry, cherry pick 1, dose response (AID 588763); type: functional
[16] = biological target: T5, Polyadenylate-binding protein 1 (Homo sapiens, UniProt P11940); experiment: MLLE binding blockers, Cy5 peptide tracer – biochemical, fluorescence polarization, Cy5-PAM2 peptide, secondary, miRNA deadenylation inhibitor project, dose response (AID 602260); type: functional; conditions: read-out: IC50_Mean
[17] = biological target: T6, Rac GTPase-activating protein 1 (Homo sapiens, UniProt Q9H0H5); experiment: blockers of MgcRacGAP-driven Rac1 GTP hydrolysis – biochemical, ADP Hunter fluorescence, primary and confirmatory, confirmation (AID 624330); type: functional
T6 sequence (Q9H0H5 whole entry): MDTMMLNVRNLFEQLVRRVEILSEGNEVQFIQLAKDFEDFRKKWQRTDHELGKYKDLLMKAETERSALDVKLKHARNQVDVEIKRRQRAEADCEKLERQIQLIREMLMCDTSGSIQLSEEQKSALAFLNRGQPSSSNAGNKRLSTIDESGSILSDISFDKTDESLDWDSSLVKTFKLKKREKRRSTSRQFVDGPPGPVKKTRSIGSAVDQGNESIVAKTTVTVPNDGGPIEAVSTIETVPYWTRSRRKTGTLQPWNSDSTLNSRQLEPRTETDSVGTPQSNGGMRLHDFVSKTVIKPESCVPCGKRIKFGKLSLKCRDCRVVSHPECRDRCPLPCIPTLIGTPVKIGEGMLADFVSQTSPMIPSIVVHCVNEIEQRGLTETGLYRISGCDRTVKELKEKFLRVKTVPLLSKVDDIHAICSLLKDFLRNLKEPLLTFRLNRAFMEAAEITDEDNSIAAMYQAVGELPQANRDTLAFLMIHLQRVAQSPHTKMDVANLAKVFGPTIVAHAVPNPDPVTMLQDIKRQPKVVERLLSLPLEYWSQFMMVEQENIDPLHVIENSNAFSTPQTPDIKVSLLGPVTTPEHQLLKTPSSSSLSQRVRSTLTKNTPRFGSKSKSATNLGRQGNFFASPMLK

Protein skinhead-1 = biological target: T7, Protein skinhead-1 (Caenorhabditis elegans, UniProt P34707); type: functional
T7 sequence (P34707 whole entry): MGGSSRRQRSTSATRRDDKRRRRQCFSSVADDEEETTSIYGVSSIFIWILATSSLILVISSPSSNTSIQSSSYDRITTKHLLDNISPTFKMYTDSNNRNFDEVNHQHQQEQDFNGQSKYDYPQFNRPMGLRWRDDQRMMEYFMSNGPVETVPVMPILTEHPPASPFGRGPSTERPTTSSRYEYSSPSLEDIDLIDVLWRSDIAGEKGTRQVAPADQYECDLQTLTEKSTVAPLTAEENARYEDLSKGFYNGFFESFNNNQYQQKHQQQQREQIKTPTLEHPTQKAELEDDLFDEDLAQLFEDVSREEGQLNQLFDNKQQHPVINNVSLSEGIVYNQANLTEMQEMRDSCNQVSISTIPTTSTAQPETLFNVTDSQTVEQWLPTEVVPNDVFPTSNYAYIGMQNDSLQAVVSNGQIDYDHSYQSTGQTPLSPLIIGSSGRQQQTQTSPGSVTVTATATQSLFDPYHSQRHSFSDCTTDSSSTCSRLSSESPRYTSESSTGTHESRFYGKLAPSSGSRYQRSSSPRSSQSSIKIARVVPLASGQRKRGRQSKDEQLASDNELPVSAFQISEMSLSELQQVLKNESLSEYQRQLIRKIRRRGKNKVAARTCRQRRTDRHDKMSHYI

[18] = biological target: Glucose-6-phosphate 1-dehydrogenase (Homo sapiens, UniProt P11413); experiment: inhibition of Homo sapiens G6PD, dose series – biochemical, fluorescence, selectivity assay for P. falciparum G6PD inhibitor project, dose response (AID 504792); type: functional
[19] = biological target: T5, Polyadenylate-binding protein 1; experiment: MLLE domain peptide-binding blockers, IC50 – biochemical, fluorescence polarization, FITC-PAM2 peptide, dose response (AID 602259); type: functional; conditions: read-out: IC50_Mean

T5 sequence (P11940 whole entry): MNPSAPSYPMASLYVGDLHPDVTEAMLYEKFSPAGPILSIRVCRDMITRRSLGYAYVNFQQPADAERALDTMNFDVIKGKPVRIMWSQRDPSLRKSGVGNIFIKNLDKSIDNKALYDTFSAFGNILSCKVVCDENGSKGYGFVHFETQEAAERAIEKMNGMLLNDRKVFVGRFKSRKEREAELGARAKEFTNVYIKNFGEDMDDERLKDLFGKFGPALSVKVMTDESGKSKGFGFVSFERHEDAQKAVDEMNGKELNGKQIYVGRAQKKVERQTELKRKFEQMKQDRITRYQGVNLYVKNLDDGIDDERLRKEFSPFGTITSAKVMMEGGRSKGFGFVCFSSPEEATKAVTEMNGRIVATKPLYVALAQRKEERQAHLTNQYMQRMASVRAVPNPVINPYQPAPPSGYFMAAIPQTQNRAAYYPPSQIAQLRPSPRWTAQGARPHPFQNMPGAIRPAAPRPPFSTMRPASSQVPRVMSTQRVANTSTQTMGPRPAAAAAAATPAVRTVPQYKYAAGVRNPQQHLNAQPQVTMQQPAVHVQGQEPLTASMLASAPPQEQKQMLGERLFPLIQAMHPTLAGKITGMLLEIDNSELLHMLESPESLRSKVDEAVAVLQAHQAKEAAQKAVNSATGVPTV
Sequence of Nucleotide-binding oligomerization domain-containing protein 2 (Q9HC29 whole entry, the tested form may be a part): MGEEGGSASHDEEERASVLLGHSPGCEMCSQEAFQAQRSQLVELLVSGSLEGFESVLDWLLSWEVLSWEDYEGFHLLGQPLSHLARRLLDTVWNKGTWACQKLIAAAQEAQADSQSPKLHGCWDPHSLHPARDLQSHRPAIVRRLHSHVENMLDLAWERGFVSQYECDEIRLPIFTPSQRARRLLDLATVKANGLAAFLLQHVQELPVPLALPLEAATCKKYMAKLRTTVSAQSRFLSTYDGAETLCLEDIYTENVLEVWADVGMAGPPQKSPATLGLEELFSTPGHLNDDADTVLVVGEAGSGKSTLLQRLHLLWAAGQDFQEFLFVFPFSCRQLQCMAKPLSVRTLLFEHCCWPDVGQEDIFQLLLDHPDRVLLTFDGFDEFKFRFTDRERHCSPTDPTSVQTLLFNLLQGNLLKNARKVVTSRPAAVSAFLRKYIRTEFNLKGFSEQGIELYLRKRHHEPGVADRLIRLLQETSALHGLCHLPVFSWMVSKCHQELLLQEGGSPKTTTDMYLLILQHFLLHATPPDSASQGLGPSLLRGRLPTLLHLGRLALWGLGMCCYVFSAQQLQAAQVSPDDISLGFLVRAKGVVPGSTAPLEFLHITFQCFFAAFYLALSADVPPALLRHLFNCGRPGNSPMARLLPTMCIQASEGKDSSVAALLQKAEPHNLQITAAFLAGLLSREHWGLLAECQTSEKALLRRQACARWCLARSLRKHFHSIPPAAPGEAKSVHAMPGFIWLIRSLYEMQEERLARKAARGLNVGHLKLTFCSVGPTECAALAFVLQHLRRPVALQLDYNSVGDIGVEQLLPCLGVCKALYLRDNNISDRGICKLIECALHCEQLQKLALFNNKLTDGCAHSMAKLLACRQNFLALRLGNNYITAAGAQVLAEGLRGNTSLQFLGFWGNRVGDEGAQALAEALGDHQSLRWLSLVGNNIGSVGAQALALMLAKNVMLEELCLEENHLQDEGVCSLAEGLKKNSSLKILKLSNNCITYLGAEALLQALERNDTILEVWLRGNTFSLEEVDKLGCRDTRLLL
Sequence of Cytochrome P450 2D6 (P10635 whole entry): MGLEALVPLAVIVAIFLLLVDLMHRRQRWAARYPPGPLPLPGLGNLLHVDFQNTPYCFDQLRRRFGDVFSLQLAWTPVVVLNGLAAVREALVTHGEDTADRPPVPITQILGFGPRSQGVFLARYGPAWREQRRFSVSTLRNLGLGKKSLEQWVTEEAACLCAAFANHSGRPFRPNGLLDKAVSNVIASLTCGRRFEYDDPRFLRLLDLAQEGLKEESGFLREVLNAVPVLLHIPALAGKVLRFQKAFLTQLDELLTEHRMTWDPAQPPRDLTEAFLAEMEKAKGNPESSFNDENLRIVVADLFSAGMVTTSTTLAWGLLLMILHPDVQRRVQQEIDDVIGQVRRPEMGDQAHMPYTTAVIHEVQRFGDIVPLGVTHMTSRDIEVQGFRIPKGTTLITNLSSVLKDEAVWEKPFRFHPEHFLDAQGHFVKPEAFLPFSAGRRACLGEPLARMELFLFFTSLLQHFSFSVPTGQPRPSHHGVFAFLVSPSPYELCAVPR
Sequence of Glucose-6-phosphate 1-dehydrogenase (P11413 whole entry, the tested form may be a part): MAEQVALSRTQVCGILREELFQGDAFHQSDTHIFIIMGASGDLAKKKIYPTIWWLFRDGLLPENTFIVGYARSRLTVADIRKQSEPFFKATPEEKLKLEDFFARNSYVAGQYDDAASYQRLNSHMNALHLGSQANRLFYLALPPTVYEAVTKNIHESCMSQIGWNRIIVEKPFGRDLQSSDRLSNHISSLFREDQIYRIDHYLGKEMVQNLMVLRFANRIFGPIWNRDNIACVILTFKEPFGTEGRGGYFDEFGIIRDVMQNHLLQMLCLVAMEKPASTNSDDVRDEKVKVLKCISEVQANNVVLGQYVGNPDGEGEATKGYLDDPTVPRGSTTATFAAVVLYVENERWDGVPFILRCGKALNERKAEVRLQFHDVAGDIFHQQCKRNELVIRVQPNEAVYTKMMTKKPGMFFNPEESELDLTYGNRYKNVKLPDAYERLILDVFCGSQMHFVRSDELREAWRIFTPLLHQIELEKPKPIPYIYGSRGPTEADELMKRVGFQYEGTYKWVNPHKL
Sequence of Beta-2 adrenergic receptor (P07550 whole entry): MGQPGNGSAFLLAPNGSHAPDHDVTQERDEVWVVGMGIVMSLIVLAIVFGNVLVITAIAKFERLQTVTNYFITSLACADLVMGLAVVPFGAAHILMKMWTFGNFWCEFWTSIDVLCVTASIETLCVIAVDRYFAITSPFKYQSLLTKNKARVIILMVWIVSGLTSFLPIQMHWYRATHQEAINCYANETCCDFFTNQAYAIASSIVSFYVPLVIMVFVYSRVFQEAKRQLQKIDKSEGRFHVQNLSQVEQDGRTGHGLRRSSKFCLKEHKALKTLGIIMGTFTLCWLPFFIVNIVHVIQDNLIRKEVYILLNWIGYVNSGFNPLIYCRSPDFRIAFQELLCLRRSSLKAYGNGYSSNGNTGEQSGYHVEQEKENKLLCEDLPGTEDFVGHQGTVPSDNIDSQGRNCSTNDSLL
Sequence of Phospholipase A2 (P04054 whole entry): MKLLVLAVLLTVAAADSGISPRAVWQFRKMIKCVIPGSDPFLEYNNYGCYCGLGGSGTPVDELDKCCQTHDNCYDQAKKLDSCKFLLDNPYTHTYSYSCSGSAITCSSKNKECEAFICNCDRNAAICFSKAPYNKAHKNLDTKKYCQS
Sequence of Cytochrome P450 2C19 (P33261 whole entry): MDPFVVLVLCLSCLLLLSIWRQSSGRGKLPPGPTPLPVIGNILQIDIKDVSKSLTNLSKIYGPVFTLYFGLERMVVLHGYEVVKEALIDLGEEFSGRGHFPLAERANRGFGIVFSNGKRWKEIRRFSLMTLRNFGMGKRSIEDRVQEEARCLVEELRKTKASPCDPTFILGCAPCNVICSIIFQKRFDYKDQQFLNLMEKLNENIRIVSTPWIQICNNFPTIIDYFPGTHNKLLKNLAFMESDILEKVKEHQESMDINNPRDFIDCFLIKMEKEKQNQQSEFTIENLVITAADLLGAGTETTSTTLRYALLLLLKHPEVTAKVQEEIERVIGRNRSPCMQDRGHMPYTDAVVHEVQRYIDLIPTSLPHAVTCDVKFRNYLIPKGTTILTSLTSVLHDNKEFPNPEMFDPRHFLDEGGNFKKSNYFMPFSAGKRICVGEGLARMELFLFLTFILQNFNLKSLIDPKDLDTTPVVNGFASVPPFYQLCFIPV

Structure (SMILES): CCCCCCCOC(=O)C[N+](C)(C)CCOC1CC2CCC1(C)C2(C)C (centres undefined)
- IC50 (Phospholipase A2): 10.3 µM (active)
- EC50 [1]: 15.8 µM (active)
- EC50 [2]: 20.2 µM (active)
- EC50 [3]: 3.84 µM (active)
- IC50 (Cysteine protease ATG4B): 7.62 µM (active)
- EC50 (Streptococcus): 9.21 µM (active)
- AC50 [4]: 29.2 µM (active)
- CC50 (Vero): > 25 µM (active)
- EC50 (Streptokinase A): 5.77 µM (active)
- EC50 [5]: 0.997 µM (active)
- EC50 [6]: > 150 µM (inactive)
- EC50 [7]: 0.224 µM (active)
- EC50 [8]: > 60 µM (not active)

Structure (SMILES): Cc1ccc2cccc(/N=C/c3c(C)[nH]n(-c4ccccc4)c3=O)c2n1
- EC50 (HEK293 [9]): 4.72 µM (active)
- IC50 (HEK293 [10]): 7.67 µM (active)
- IC50 (HEK293 [11]): > 20 µM (inactive)
- IC50 (HEK293 [12]): > 20 µM (inactive)
- EC50 [13]: > 20 µM (inactive)
- IC50 (HEK293 [14]): > 20 µM (inactive)

Structure (SMILES): O=C(O)C1CCCCC1C(=O)Nc1ccccc1Cl (centres undefined)
- Ki (fMet-Leu-Phe receptor): > 66.7 µM (inactive)
- AC50 (Cytochrome P450 2D6): inconclusive
- AC50 (Cytochrome P450 2C19): 2.24 µM (inconclusive)

Structure (SMILES): Cc1cc(C)n2nc(C(=O)Nc3cccc(S(=O)(=O)N(C)c4ccccc4)c3)nc2n1
- EC50 [15]: 0.0342 µM (active)

Structure (SMILES): c1cc(CNc2ccc3c(c2)OCO3)ccn1
- IC50 [16]: > 66 µM (inactive)
- IC50 [17]: 63.8 µM (active)
- IC50 (Protein skinhead-1): > 100 µM (inactive)
- IC50 [18]: > 80 µM (inactive)
- IC50 [19]: 23.5 µM (inactive)

Structure (SMILES): COc1ccc(-c2cc(=O)oc3cc(O)ccc23)cc1
- EC50 (HEK293 [9]): 5.67 µM (active)
- IC50 (HEK293 [10]): 3.06 µM (active)
- IC50 (HEK293 [11]): > 20 µM (inactive)
- IC50 (HEK293 [12]): > 20 µM (inactive)
- EC50 [13]: 5.73 µM (active)
- IC50 (HEK293 [14]): 2.45 µM (active)
